Measurements: ChEMBL document CHEMBL1136946, “The regulation of inflammatory cytokine secretion in macrophage cell line by the chemical constituents of Rhus sylvestris” (Bioorg Med Chem Lett, 2009)
Active and inactive are the calls of the source. No cut-off for these calls is given here.

Key:
SK-MEL-1 = experiment: Cytotoxicity against human SK-MEL-1 cells by MTT assay; format: functional, cell-based
HeLa = experiment: Cytotoxicity against human HeLa cells by MTT assay; format: functional, cell-based
RAW264.7 [1] = experiment: Antiinflammatory activity in mouse RAW264.7 cells assessed as inhibition LPS-induced TNFalpha secretion at 0.01 uM after 12 hrs; format: functional; details: RAW264.7, 12 h
MCF7 = experiment: Cytotoxicity against human MCF7 cells by MTT assay; format: functional, cell-based
RAW264.7 [2] = experiment: Antiinflammatory activity in mouse RAW264.7 cells assessed as inhibition LPS-induced IL6 secretion at 1 uM after 12 hrs; format: functional; details: for inhibition at 1 µM: RAW264.7, 12 h
RAW264.7 [3] = experiment: Antiinflammatory activity in mouse RAW264.7 cells assessed as inhibition LPS-induced TNFalpha secretion at 1 uM after 12 hrs; format: functional; details: RAW264.7, 12 h

| Compound | IC50 (SK-MEL-1) | IC50 (HeLa) | inhibition at 0.01 µM (RAW264.7 [1]) | IC50 (MCF7) | inhibition at 1 µM (RAW264.7 [2]) | inhibition at 1 µM (RAW264.7 [3]) | Activity (RAW264.7 [2]) |
| --- | --- | --- | --- | --- | --- | --- | --- |
| C=C(C)C(O)CC[C@@H](C)[C@H]1CC[C@@]2(C)[C@H]3CC[C@H]4C(C)(C)C(=O)CC[C@@]45C[C@@]35CC[C@]12C (stereo not given in full) | > 50 µM | > 50 µM | 20.9% | > 50 µM | 54.6% |  |  |
| CC(C)=CCC[C@@H](C)[C@H]1CC[C@@]2(C)[C@@H]3CC=C4[C@@H](CC[C@H](O)C4(C)C)[C@]3(C)CC[C@]12C | > 50 µM | > 50 µM |  | > 50 µM |  | 80.9% |  |
| CC1(C)CC[C@]2(C)CC[C@]3(C)[C@H]4CC=C5[C@@H](CC[C@H](O)C5(C)C)[C@]4(C)CC[C@@]3(C)[C@@H]2C1 [GLUTINOL] | > 50 µM | > 50 µM | 20.9% | > 50 µM |  |  | inactive |
| C=C(C)[C@@H]1CC[C@]2(C)CC[C@]3(C)[C@H](CC[C@@H]4[C@@]5(C)CC[C@H](O)C(C)(C)[C@@H]5CC[C@]43C)[C@@H]12 [LUPEOL] | > 50 µM | > 50 µM |  | > 50 µM |  |  |  |
| COc1ccc(/C=C/C(=O)c2ccc(OC)cc2O)cc1 | 41.7 µM | > 50 µM | 20.9% | 45.4 µM |  |  | inactive |
| C=C(C)C(=O)CC[C@@H](C)[C@H]1CC[C@@]2(C)[C@H]3CC[C@H]4C(C)(C)C(=O)CC[C@@]45C[C@@]35CC[C@]12C | 15.9 µM | 24.8 µM | 20.9% | 30.9 µM |  |  | inactive |
| CC(C)=CCC[C@@H](C)[C@H]1CC[C@@]2(C)[C@H]3CC[C@H]4C(C)(C)C(=O)CC[C@@]45C[C@@]35CC[C@]12C | > 50 µM | > 50 µM |  | > 50 µM |  | 15.2% | inactive |
| CC(=O)O[C@H]1CC[C@]2(C)[C@H]3CC=C4[C@@H]5CC(C)(C)CC[C@]5(C)CC[C@@]4(C)[C@]3(C)CC[C@H]2C1(C)C [beta-AMYRIN ACETATE] | > 50 µM | > 50 µM | 20.9% | 26.7 µM |  |  | inactive |
| CC[C@H](CC[C@@H](C)[C@H]1CC[C@H]2[C@@H]3CC=C4C[C@@H](O)CC[C@]4(C)[C@H]3CC[C@]12C)C(C)C [BETA-SITOSTEROL] | > 50 µM | 46.2 µM | 20.9% | 42.1 µM | 54.5% |  |  |
| CC1(C)CC[C@]2(C)CC[C@]3(C)C(=CC[C@@H]4[C@@]5(C)CC[C@H](O)C(C)(C)[C@@H]5CC[C@]43C)[C@@H]2C1 [beta-AMYRIN] | > 50 µM | > 50 µM |  | > 50 µM |  |  |  |
